doi:10.1101/2022.03.07.483284v1 (biorxiv, 2022)

molecular target: T1, WTapPOL (intact exonuclease domain) (Plasmodium falciparum, UniProt Q8ILY1); assay: […]'-5' exonuclease assay, 2-aminopurine release from blunt-ended dsDNA; type: biochemical; conditions: not given
T1 sequence (Q8ILY1 1389-2016): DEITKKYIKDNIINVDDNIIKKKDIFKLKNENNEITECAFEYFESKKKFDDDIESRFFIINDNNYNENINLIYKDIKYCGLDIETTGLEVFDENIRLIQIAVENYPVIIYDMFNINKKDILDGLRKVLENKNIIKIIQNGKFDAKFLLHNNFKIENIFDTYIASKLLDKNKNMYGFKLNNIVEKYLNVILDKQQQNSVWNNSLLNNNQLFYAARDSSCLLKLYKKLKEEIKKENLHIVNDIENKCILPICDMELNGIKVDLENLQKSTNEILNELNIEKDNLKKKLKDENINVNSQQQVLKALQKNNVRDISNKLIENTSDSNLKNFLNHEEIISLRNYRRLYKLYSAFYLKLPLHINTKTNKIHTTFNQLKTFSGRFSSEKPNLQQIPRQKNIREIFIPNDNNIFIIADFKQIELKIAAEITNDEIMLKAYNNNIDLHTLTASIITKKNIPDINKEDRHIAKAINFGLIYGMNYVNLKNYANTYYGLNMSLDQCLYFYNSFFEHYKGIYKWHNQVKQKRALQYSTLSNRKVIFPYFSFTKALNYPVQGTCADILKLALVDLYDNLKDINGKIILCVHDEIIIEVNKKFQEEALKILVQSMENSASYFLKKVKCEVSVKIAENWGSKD

Compound	IC50
CC(C)(C)c1ccc(S(=O)(=O)Nc2c3c(nn2-c2cccc(Cl)c2)CSC3)cc1 [6a]	40 ± 5.7 µM
CC(C)(C)c1ccc(S(=O)(=O)Nc2c3c(nn2-c2ccc(Cl)cc2)CSC3)cc1 [6b]	21 ± 2.5 µM
CC(C)(C)c1ccc(S(=O)(=O)Nc2c3c(nn2-c2cccc(C(F)(F)F)c2)CSC3)cc1 [6e]	41 ± 6.7 µM
CC(C)(C)c1ccc(S(=O)(=O)Nc2c3c(nn2-c2ccc(C(F)(F)F)cc2)CSC3)cc1 [6f]	16 ± 0.9 µM

molecular target: T1, WTapPOL (intact exonuclease domain); assay: as above; type: biochemical; conditions: read-out: % inhibition at 100 μM

Compound	inhibition at 100 µM
CC(C)(C)c1ccc(C(=O)Nc2c3c(nn2-c2cccc(Cl)c2)CSC3)cc1 [5a, MMV666123]	< 50%
CC(C)(C)c1ccc(NC(=O)Nc2c3c(nn2-c2cccc(Cl)c2)CSC3)cc1 [7a]	< 50%
CC(C)(C)c1ccc(NC(=O)Nc2c3c(nn2-c2ccc(Cl)cc2)CSC3)cc1 [7b]	< 50%
CC(C)(C)c1ccc(NC(=O)Nc2c3c(nn2-c2cccc(C(F)(F)F)c2)CSC3)cc1 [7e]	< 50%
CC(C)(C)c1ccc(NC(=O)Nc2c3c(nn2-c2cccc(Cl)c2)COC3)cc1 [13a]	< 50%
